Data taken from patent publication US7981457B2, “Taste improving substances” (Quest International B.V. & Quest International Services B.V., priority 2004, dated 2011).

Test: tasting of LC-MS fractions of the product of Example 1
Assay type: in vivo
Details: fractions of the Example 1 product, content shown by 1H NMR
Procedure: 30 g of ethyl lactate and 10 g of GMP were thoroughly mixed in 90 g of glycerol to obtain a clear solution. The mixture was heated under stirring at 120° C. for 1 hour. A white precipitate was formed at the end of the heating period. The mixture was cooled to 70° C. and 100 g of isopropyl alcohol was added followed by stirring. Next, the mixture was filtered over a glass filter and the filter residue was washed three times with 300 g isopropyl alcohol. Thus, 12 g of an almost white powder was obtained. The main taste components of the obtained product were identified using LC-MS and tasting different fractions.

Row | Molecule | taste of the fractions containing the substance
1 | O-lactoyl GMP | “long-lasting” and “kokumi”
2 | CC(O)C(=O)Nc1nc2c(ncn2[C@@H]2O[C@H](COP(=O)(O)O)[C@@H](O)[C@H]2O)c(=O)[nH]1 (some centres unmarked) [N-lactoyl GMP] | “long-lasting” and “kokumi”
